Laboratory results from patent publication US20190054054A1, “Methods reducing or preventing oxidation of high density lipoprotein (HDL)” (Amarin Pharmaceuticals Ireland Limited, priority 2017, published 2019).

Key:
[1] = test system: HUVECs exposed to oxLDL; assay: NO and ONOO^− release from HUVECs exposed to oxLDL, nanosensors (Example 8); assay type: cell-based, human
Procedure: Human umbilical vein endothelial cells (HUVECs) were isolated into primary cultures from female donors by Clonetics (San Diego, Calif.) and purchased as proliferating cells. All cell culture donors were healthy, with no pregnancy or prenatal complications. […] The confluent cells (4 to 5×10^5 cells/35 mm dish) were placed with minimum essential medium containing 3 mM L-arginine and 0.1 mM BH4 [(6R)-5,6,7,8-tetrahydrobiopterin]. Before experimental use, the cells (from second or third passage) were rinsed twice with Tyrode-HEPES buffer with 1.8 mM CaCl2).
The omega-3 fatty acids (O3FAs) cis-5,8,11,14,17-eicosapentaenoic acid (EPA) and docosahexaenoic acid (DHA) were purchased from Sigma-Aldrich (St. Louis, Mo.) and prepared initially at 11 mM in redistilled ethanol. Primary and secondary O3FA stock solutions were prepared and stored under argon at −20° C.
The oxLDL causes eNOS uncoupling and endothelial dysfunction to reproduce disease-like conditions. 25 Venous blood from healthy normolipidemic volunteers was collected into Na-EDTA (1 mg/mL blood) vacuum tubes after a 12-hour fast. Plasma was immediately separated by centrifugation at 3,000 g for 10 minutes at 4° C.
Tris-NaCl buffer was added to the dialyzed LDL to adjust the protein concentration to 30 mg/mL. A 1-mL aliquot of 20 μM CuSO4 was added to 1 mL of dialyzed normal LDL.
Oxidation was monitored by the use of measurements of TBARS. Briefly, LDL was incubated with thiobarbituric acid (0.5 wt/vol, in H2SO4, 50 mM) for 30 minutes at 100° C. […] TBARS concentration was determined as malondialdehyde (MDA) equivalents with the use of an MDA standard curve.
Concurrent measurements of NO and ONOO^− were performed with tandem electrochemical nanosensors combined into one working unit with a total diameter of 200-400 nm. Their design was based on previously developed and chemically modified carbon-fiber technology. Each of the nanosensors was made by depositing a sensing material on the tip of a carbon fiber (length 4 to 5 μm, diameter 100-200 nm). The fibers were sealed with nonconductive epoxy and electrically connected to copper wires with conductive silver epoxy. Conductive films of polymeric Ni(II) tetrakis (3-methoxy-4-hydroxyphenyl) porphyrin and Mn(III) [2.2] paracyclophanylporphyrin were used for the NO and ONOO^− sensors, respectively.
The amperometric method (with a response time of 0.1 ms) provides a quantitative signal (current) that is directly proportional to changes (from basal levels) in NO or ONOO^− concentration. Amperometric measurements were performed with a Gamry III double-channel potentiostat. Basal NO or ONOO^− levels were measured by differential pulse voltammetry in separate experiments.
All measurements of NO and ONOO^− were performed on intact endothelial cells. The NO/ONOO^− nanosensor module was positioned 5±2 μm from the surface of each individual endothelial cell using a computer-controlled M3301 micromanipulator (x-y-z resolution of 0.2 μm) and microscope (both from World Precision Instruments, Berlin, Germany) fitted with a CD camera.
Endothelial basal media was used for all the treatments. Controls were supplied with an equivalent volume of endothelial basal media.
Data are presented as mean±S.D. for (N) separate samples or experiments. Differences between groups were analyzed using the two-tailed, Student t-test (for comparisons between only two groups) or ANOVA followed by Student-Newman-Keuls multiple comparisons post-hoc analysis (for comparisons between three or more groups). Only differences with probability values less than 0.05 were considered significant.

[2] = Membrane cholesterol domain peak intensity, x-ray diffraction of POPC/cholesterol membranes (Example 9); conditions: 1.5:1 C/P mole ratio; for % change Vs control / Relative Cholesterol Domain Preak Intensity: drug-to-phospholipid mole ratio 1:30; for Relative Cholesterol Domain Preak Intensity: POPC and cholesterol
Procedure: The fatty acid stock solutions were stored at −20° C. until use. […] Samples were shell-dried under nitrogen gas and placed under vacuum for 3 hours to remove residual solvent at room temperature. After desiccation, each sample was resuspended in saline buffer (0.5 mM HEPES, 154 mM NaCl, pH 7.3) to yield a final phospholipid concentration of 2.5 mg/mL. Lipid suspensions were then vortexed for 3 minutes at ambient temperature to form MLVs. Membrane lipid vesicles were oriented for x-ray diffraction analysis as described by others (e.g., Herbette et al., Biophys. […] Briefly, a 100 μL aliquot of each MLV preparation (containing 250 μg MLV) was transferred to a Lucite® sedimentation cell fitted with an aluminum foil substrate designed to collect MLVs into a single membrane pellet upon centrifugation. […] After centrifugal orientation, sample supernatants were aspirated and aluminum foil substrates, each supporting a single membrane pellet, were removed from the sedimentation cells. Sample pellets were dried for 5-10 minutes at ambient conditions, mounted onto curved glass supports, and placed in hermetically-sealed, brass or glass containers (for immediate analysis or temporary storage, respectively). All x-ray diffraction experiments were conducted at 20° C., 74% relative humidity. The latter was established by exposing membrane samples to saturated solutions of L-(+)-tartaric acid (K2C4H4O6.½H2O) for at least 1 hour prior to experimental analysis. Oriented membrane samples were aligned at grazing incidence with respect to a collimated, mono-chromatic CuKα x-ray beam (Kα1 and Kα2 unresolved; λ=1.54 Å) produced by a Rigaku Rotaflex RU-200, high-brilliance microfocus generator (Rigaku-MSC, The Woodlands, Tex.) as previously described (Mason et al., Biophys. J., vol. 55(4), pages 769-778 (1989)). The samples were initially subjected to x-ray diffraction analysis at least 12 hours after formation of the membrane pellets and retested for up to several days. Analytical x-rays were generated by electron bombardment of a rotating copper anode and are filtered through a thin nickel foil to provide monochromatic radiation (λ=1.54 Å). Collimation of the x-ray beam was achieved using a single Franks mirror. Diffraction data were collected on a one-dimensional, position-sensitive electron detector (Hecus X-ray Systems, Graz, Austria) at a sample-to-detector distance of 150 mm from the sample site. The d-space for any given membrane multi bilayer is a measurement of the unit cell periodicity of the membrane lipid bilayer (e.g., the distance from the center of one lipid bilayer to the next including surface hydration), and is calculated from Bragg's Law, h λ=2 d sin θ, where h is the diffraction order, λ is the wavelength of the x-ray radiation (1.54 Å), d is the membrane lipid bilayer unit cell periodicity, and θ is the Bragg angle equal to one-half the angle between the incident beam and scattered beam. […] Routines written in Origin 8.6 (OriginLab Corporation, Northampton, Mass.) were used to determine total peak area (associated with all diffraction peaks in a given pattern) against which the second-order cholesterol domain peak was normalized. The raw data collected in this study was normalized using internal. Data were presented as mean+S.E.M. for (N) separate samples or treatment groups. Differences between groups were analyzed using the two-tailed, Student's t-test (for comparisons between only two groups) or ANOVA followed by Dunnett or Student-Newman-Keuls multiple comparisons post-hoc analysis (for comparisons between three or more groups). Alpha error was set to 0.05 in this study.

[3] = oxLDL 20 min, then treatment for 1 hour, EPA 10 μM, ATM 1.0 μM
[4] = treatment 'EPA + oxLDL' (Table 1)
[5] = EPA to phospholipid mole ratio 1:60
[6] = EPA to phospholipid mole ratio 1:90

Compound	NO [1, 3] [nM]	NO/ONOO^− Ratio [1, 3]	ONOO^− [1, 3]	increase in NO release in ECs exposed to oxLDL ([1]; as compared to vehicle, EPA 10 μM, ATM 1.0 μM) [%]	NO [1, 4]	NO/ONOO^− Ratio [1, 4]	ONOO^− [1, 4]	reduction in cholesterol domain peaks as compared to vehicle treatment ([2]; 1:30) [%]	% Change (vs. Control) [2, 5] [%]	Relative Cholesterol Domain Peak Intensity [2, 5]	% Change (vs. Control) [2, 6] [%]	Relative Cholesterol Domain Peak Intensity [2, 6]	% change Vs control [2] [%]	Relative Cholesterol Domain Preak Intensity [2]	effect on cholesterol domains (in words) ([2]; 1:30)	% change Vs control ([2]; listed as Gemfib) [%]	Relative Cholesterol Domain Preak Intensity ([2]; listed as Gemfib)	% change Vs control ([2]; listed as Niacin) [%]	Relative Cholesterol Domain Preak Intensity ([2]; listed as Niacin)
CC/C=C\C/C=C\C/C=C\C/C=C\C/C=C\C/C=C\CCC(=O)O [DHA, docosahexaenoic acid]	567 ± 103	3.39 ± 0.72	167 ± 18	–	–	–	–	–	–	–	–	–	–	–	–	–	–	–	–
CC/C=C\C/C=C\C/C=C\C/C=C\C/C=C\CCCC(=O)O [EPA, cis-5,8,11,14,17-eicosapentaenoic acid]	423 ± 163	2.24 ± 0.91	189 ± 25	45	663 ± 50	2.68 ± 0.28	247 ± 17	65	−30.2 ± 27.9	29.5 ± 10.9	−15.0 ± 12.6	36.0 ± 3.1	−65.5 ± 17.1	14.6±5	–	–	–	–	–
Cc1ccc(C)c(OCCCC(C)(C)C(=O)O)c1 [gemfibrozil]	192 ± 34	0.72 ± 0.16	266 ± 34	–	–	–	–	–	–	–	–	–	11	46.9±12.6	no significant changes in cholesterol domain size	10.9 ± 43.3	46.9 ± 12.6	–	–
O=C(O)c1cccnc1 [niacin, nicotinic acid]	431 ± 100	2.00 ± 0.52	215 ± 25	–	–	–	–	–	–	–	–	–	−35	27.5±12.2	no significant changes in cholesterol domain size	–	–	−35.0 ± 30.8	27.5 ± 12.2
